Experimental data reported in patent US5834487A, “Inhibition of 26S and 20S proteasome by indanones” (CV Therapeutics, priority 1996, dated 1998).
In brackets after ≈: the same amount, converted by molar mass.

The compounds below were run against T1, 20S catalytic subunit of the proteasome (multicatalytic proteinase complex) (Bos taurus, UniProt Q32KL2) (assay: 20S proteasome chymotryptic activity, fluorogenic peptide cleavage). Settings: 50 μM succinyl-leu-leu-val-tyr-7-amino-4-methyl coumarin, 15 minutes at 37° C, pH7.5.
T1 construct: was purified to homogeneity from bovine brain according to published methods; from tissue; host or cells: bovine brain
Format: biochemical, bovine
Procedure: Compounds of this invention prepared according to the method of Example 1 were tested as follows. The 20S catalytic subunit of the proteasome (also known as the multicatalytic proteinase complex) was purified to homogeneity from bovine brain according to published methods (Wilk S. and Orlowski, M, 40 842 J. Neurochem (1983)). The chymotryptic activity of the complex is measured by the increase in fluorescence following cleavage of the substrate peptide succinyl-leucine-leucine-valine-tyrosine-7-amino-4-methyl coumarin. The standard in vitro assay consists of 2 μg 20S proteasome, 0.1-100 μg/ml proteasome inhibitor in 200 μl 50 mM HEPES, containing 0.1% sodium dodecyl sulphate, pH7.5. The proteolytic reaction is initiated by the addition of 50 μM fluorogenic peptide substrate and allowed to progress for 15 minutes at 37° C. The reaction is terminated by the addition of 100 μl of 100 mM acetate buffer, pH4.0. The rate of proteolysis is directly proportional to the amount of liberated aminomethylcoumarin which is measured by fluorescent spectroscopy (EX 370 nm, EM 430 nm).

IC50 [µg/mL] | SMILES
> 10 | COc1ccc2c(c1)C(CC(=O)N(c1ccc(O)cc1)c1ccc3ccccc3c1)CC2=O (centres unmarked) [Compound 144]
10 | COc1ccc2c(c1)C(CC(=O)NC(CC(C)C)C(=O)NC(CC(C)C)C(=O)NCc1ccc([N+](=O)[O-])cc1)CC2=O (mixture of isomers) [Compound 195]
> 10 | COc1ccc2c(c1)C(CC(=O)NC(CC(C)C)C(=O)NCCC(C)C)CC2=O (mixture of isomers) [Compound 200]
1 | COc1ccc2c(c1)C(CC(=O)NC(CC(C)C)C(=O)NC(CC(C)C)C(=O)N(Cc1ccccc1)Cc1ccccc1)CC2=O (mixture of isomers) [Compound 177]
> 10 | COc1ccc2c(c1)C(CC(=O)N1CCCC1)CC2=O (centres unmarked) [Compound 64]
> 10 | COc1ccc2c(c1)C(CC(=O)NC(CC(C)C)C(=O)NC(Cc1ccccc1)C(N)=O)CC2=O (mixture of isomers) [Compound 56]
> 10 | COc1ccc2c(c1)C(CC(=O)N1CCSCC1)CC2=O (centres unmarked) [Compound 106]
> 10 | COc1ccc2c(c1)C(CC(=O)Nc1ccc(Cl)c(Cl)c1)CC2=O (racemic) [Compound 157]
> 10 | COCCN(CCOC)C(=O)CC1CC(=O)c2ccc(OC)cc21 (centres unmarked) [Compound 79]
> 10 | CCCCC(NC(=O)CC1CC(=O)c2ccc(OC)cc21)C(=O)NC(CC(C)C)C(N)=O (mixture of isomers) [Compound 23]
> 10 | COc1ccc2c(c1)C(CC(=O)NC(Cc1c[nH]c3ccccc13)C(=O)NC(CC(C)C)C(N)=O)CC2=O (mixture of isomers) [Compound 103]
> 50 | COc1ccc2c(c1)C(CC(=O)NCCCc1ccccc1)CC2=O (racemic) [Compound 161]
> 10 | COc1ccc2c(c1)C(CC(=O)N(Cc1ccccc1)Cc1ccccc1)CC2=O (centres unmarked) [Compound 39]
> 10 | COc1ccc2c(c1)C(CC(=O)NCCCc1ccccc1)CC2=O (centres unmarked) [Compound 120]
> 10 | CCCC(NC(=O)CC1CC(=O)c2ccc(OC)cc21)C(=O)NC(CC(C)C)C(N)=O (mixture of isomers) [Compound 58]

More lines, now with the values behind:

SMILES | IC50 [µg/mL]
COc1ccc2c(c1)C(CC(=O)NC(CCC(=O)O)C(=O)NC(CC(C)C)C(N)=O)CC2=O (mixture of isomers) [Compound 97] | > 10
COc1ccc2c(c1)C(CC(=O)Nc1ccccc1)CC2=O (centres unmarked) [Compound 122] | > 10
CCC[C@@H](NC(=O)[C@H](CC(C)C)NC(=O)CC1CC(=O)c2ccc(OC)cc21)C(=O)NCC(N)=O (some centres unmarked) [Compound 87] | > 10
COc1ccc2c(c1)C(CC(=O)NC(CC(C)C)C(=O)NC(CC(N)=O)C(N)=O)CC2=O (mixture of isomers) [Compound 131] | > 10
COc1ccc2c(c1)C(CC(=O)N1CCCC1CO)CC2=O (centres unmarked) [Compound 119] | > 10
CCCC(NC(=O)CC1CC(=O)c2ccc(OC)cc21)C(=O)NC(CC(C)C)C(=O)NCC(N)=O (mixture of isomers) [Compound 44] | > 10
COc1ccc2c(c1)C(CC(=O)NC(CC(C)C)C(=O)NC(CC(C)C)C(=O)NCC1CCCCC1)CC2=O (mixture of isomers) [Compound 188] | > 10
COc1ccc2c(c1)C(CC(=O)N[C@@H](CC(C)C)C(=O)N[C@H](CC(C)C)C(=O)NCC(N)=O)CC2=O (single isomer, unassigned) [Compound 51] | 0.5 (≈ 0.995 µM)
COc1ccc2c(c1)C(CC(=O)NC(CC(C)C)C(=O)NC(CC(C)C)C(N)=O)CC2=O (mixture of isomers) [Compound 7] | > 10
COc1ccc2c(c1)C(CC(=O)N1C(C)CCCC1C)CC2=O (centres unmarked) [Compound 75] | > 10
COc1ccc2c(c1)C(CC(=O)N(C)C)CC2=O (racemic) [Compound 167] | > 50
